Experimental data reported in patent US11202792B2, “CD99 inhibitors and their uses” (GEORGETOWN UNIVERSITY, priority 2016, dated 2021).
Where two headings read alike, the source gives them in different places.

Assays:
[1] = molecular target: T1, recombinant human full-length CD99 (Homo sapiens, UniProt P14209); experiment: SPR binding kinetics, recombinant human full-length CD99 (Biacore T200); conditions: full-length CD99 produced in HEK293 cells, immobilized by amine coupling
T1 construct: Purified recombinant human full-length CD99 produced in HEK293 cells was purchased from Origene; purchased Origene #TP304056; host or cells: HEK293
T1 sequence (P14209 23-185): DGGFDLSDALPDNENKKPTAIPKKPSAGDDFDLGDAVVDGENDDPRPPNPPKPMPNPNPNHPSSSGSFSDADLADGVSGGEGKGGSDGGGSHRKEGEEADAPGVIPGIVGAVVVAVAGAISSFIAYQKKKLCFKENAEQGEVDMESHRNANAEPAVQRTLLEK
Procedure: The initial binding screening of the NCI/DTP chemical libraries was performed on a Biacore T200 instrument at room temperature using a neutravidin-coated CM5 chip (GE Healthcare Bio-Sciences) coupled with biotinylated CD99-ECD on one flow cell at levels of ˜3,000 response units (RU). A negative control protein, Ly6k was immobilized on another flow cell of the same chip (˜11,000 RU), and the first flow cell was left empty for reference subtraction due to nonspecific binding. Analytes were diluted in HBS—P buffer [10 mmol/L HEPES, pH 7.4, 150 mmol/L NaCl, % 0.05 (v/v) surfactant P20], and were injected individually over all flow cells. The running buffer contained appropriate concentrations of DMSO in HBS—P to match the DMSO level of the samples. Kinetic studies for antibody- or compound-CD99 interactions were performed in a Biacore T200 instrument. Purified recombinant human full-length CD99 produced in HEK293 cells was purchased from Origene (Rockville, Md.) (#TP304056). The recombinant human full-length CD99 was immobilized on a CM5 sensor chip by the amine-coupling method in sodium acetate buffer, pH 4.0 (˜10,000 RU). The first flow cell was left empty for background signal subtraction. Kinetic characterization of the interactions was done by injecting increasing concentrations of analytes as indicated over CD99-captured and control surface. KD (equilibrium dissociation constant) values were obtained using BiaEvaluation software (version 1.0) (Biacore) (GE Healthcare). All kinetic experiments were conducted in HBS—P buffer, which contained 1% (v/v) DMSO in case of compounds.

[2] = tested on: IOR/OS14 OS cells; experiment: Cell viability IC50, IOR/OS14; format: cell-based; conditions: Homo sapiens
Procedure: (§1) The plate was installed into the RTCA system, and the electrical impedance (represented as cell index) was measured every 10 min.
(§2) To investigate the relationship between the level of CD99 expression and drug sensitivity, the endogenous expression of CD99 was determined in a panel of 9 ES and 13 non-ES cell lines. The recombinant purified CD99-ECD protein was used to generate standard curves for immunoquantification of CD99 expression by immunoblotting (FIGS. 6B and 6C).

[3] = tested on: SKES xenografts; experiment: Orthotopic SKES xenograft, i.p. administration; format: in vivo, SCID/beige mice; conditions: for tumor growth: i.p.
Procedure: All tumor tissues were fixed in 10% neutral buffered formalin for 24 h, dehydrated through a graded series of alcohols and cleared in xylenes prior to embedding in paraffin. Embedded tissues were cut into 5 μm thick sections and stained with hematoxylin and eosin (H&E). Immunohistochemical staining was performed for CD99 and caspase 3 (cleaved). Five micron sections from formalin fixed paraffin embedded tissues were de-paraffinized with xylenes and rehydrated through a graded alcohol series. Heat induced epitope retrieval was performed by immersing the tissue sections at 98° C. for 60 min in 10 mmol/L citrate buffer (pH 6.0). Immunohistochemical staining was performed using a horseradish peroxidase labeled polymer from Agilent (Santa Clara, Calif.) (#K4001, #K4003) according to manufacturer's instructions. Briefly, slides were treated with 3% hydrogen peroxide and 10% normal goat serum for 10 min each, and exposed to primary antibodies for CD99 (Abcam, #ab8855) at a 1:100 dilution and for caspase 3 (cleaved) (Biocare (Pacheco, Calif.), #CP229A) at a 1:90 dilution in Da Vinci Green for one hour and stained on an DAKO Autostainer. Slides were exposed to the appropriate HRP labeled polymer for 30 min and DAB chromogen (Dako (Santa Clara, Calif.) for 5 min. Slides were counterstained with Hematoxylin (Fisher, Harris Modified Hematoxylin), blued in 1% ammonium hydroxide, dehydrated, and mounted with Acrymount. Consecutive sections with the primary antibody omitted were used as negative controls. The sections were evaluated in a blinded fashion by a board certified pathologist.
The antitumor activity of drugs through intraperitoneal (i.p.) administration given once daily was determined. […] The in vivo potencies of drug treatments were evaluated by event-free survival curves, where tumors that reached 1.0 cm^3 in size considered an event.

[4] = tested on: TC-71, 6647 and RDES ES cells; experiment: Soft agar colony formation assay, ES cells; format: cell-based, human; conditions: dose-dependent
Procedure: Anchorage-independent growth was determined in 0.33% agarose (Sea-Plaque Agarose, Lonza) with a 0.5% agarose underlay. […] Colonies were counted after 7-12 days.

[5] = tested on: IOR/OS20 OS cells; experiment: Cell viability IC50, IOR/OS20; format: cell-based; conditions: Homo sapiens
Procedure: as §1, §2

[6] = tested on: SAOS-2 OS cells; experiment: Cell viability IC50, SAOS-2; format: cell-based; conditions: Homo sapiens
Procedure: as §1, §2

[7] = tested on: 6647 ES cells; experiment: Cell viability IC50, 6647; format: cell-based; conditions: Homo sapiens
Procedure: as §1, §2

[8] = tested on: leukemia cell lines MOLT-4 and Jurkat; experiment: Cell viability IC50 panel, leukemia cell lines; format: cell-based; conditions: Homo sapiens
Procedure: as §1
Therefore, two leukemia cell lines, MOLT-4 and Jurkat, were included as positive controls in this experiment.

[9] = tested on: TC-CD99-shRNA #1 cells; conditions: mean ± SD
Procedure: as §1
(§3) TC-CD99-shRNA clones (TC-CD99-shRNA #1 and TC-CD99-shRNA #2) were established after selection in neomycin (500 μg/ml) (Sigma-Aldrich). The expression of DCK and CD99 was suppressed transiently by using a validated small interfering RNA (siRNA) duplexes targeting coding region (Invitrogen (Carlsbad, Calif.); #s186 and #s8768, respectively). Silencer™ Select Negative Control No. 2 siRNA (Invitrogen) was used as the control. Cells were transfected with DCK or CD99 or control siRNA oligonucleotides using X-tremeGene siRNA transfection reagent (Roche Diagnostics (Basel, Switzerland)) according to the manufacturer's protocol. The cells were analyzed for DCK and CD99 knockdown after 45 or 72 h by immunoblotting.
(§4) Two stable transfectants of TC-71 cell line, TC-CD99-shRNA #1 and TC-CD99-shRNA #2, were generated by using plasmids expressing either a shRNA targeting the 3′ untranslated region (UTR) of CD99 or a scrambled shRNA control.

[10] = tested on: TC-CD99-shRNA #2 cells; conditions: mean ± SD
Procedure: as §1, §3, §4

[11] = tested on: SKES-1 ES cells; experiment: Cell viability IC50, SKES-1; format: cell-based; conditions: Homo sapiens, SK-ES1
Procedure: as §1, §2

[12] = 48 h, read-out: average IC50 concentration for leukemia cell lines
[13] = MOLT-4 and Jurkat, read-out: IC50, leukemia cell lines

| SMILES | Kd [1] | IC50 [2] | tumor growth ([3]; 20 mg/kg both) | colony formation (anchorage-independent growth) [4] | IC50 [5] | IC50 [6] | IC50 [7] | IC50 [8, 12] | IC50 [8, 13] | Fold changes in IC50 compared with TC-71 parental cells [9] | Fold changes in IC50 compared with TC-71 parental cells ([9]; listed as Cladribine) | Fold changes in IC50 compared with TC-71 parental cells [10] | Fold changes in IC50 compared with TC-71 parental cells ([10]; listed as Cladribine) | IC50 [11] | mitotic figures per field ([3]; H&E, 200-fold magnification) | apoptotic cells ([3]; H&E, confirmed by caspase-3 immunohistochemistry) | event-free survival ([3]; i.p. once daily, 20 mg/kg both, vs vehicle) | Fold changes in IC50 compared with TC-71 parental cells ([9]; listed as Clofarabine) | Fold changes in IC50 compared with TC-71 parental cells ([10]; listed as Clofarabine) |
| --- | --- | --- | --- | --- | --- | --- | --- | --- | --- | --- | --- | --- | --- | --- | --- | --- | --- | --- | --- |
| Nc1nc(Cl)nc2c1ncn2[C@H]1C[C@H](O)[C@@H](CO)O1 [cladribine] | 3.8 ± 3.3 µM | > 30 µM | less effective | significantly inhibited | > 30 µM | > 30 µM | 0.71 µM | 0.34 ± 0.03 µM | < 1 µM | 2.85 | 2.85 ± 1.13 (n = 4) | 2.35 | 2.35 ± 1.43 (n = 2) | 0.43 µM |  |  |  |  |  |
| Nc1nc(Cl)nc2c1ncn2[C@@H]1O[C@H](CO)[C@@H](O)[C@@H]1F [clofarabine] | 5.3 ± 3.2 µM | > 10 µM | significant inhibition of tumor growth | significantly inhibited | > 10 µM | > 30 µM | 0.34 µM | 0.18 ± 0.01 µM | < 1 µM | 3.70 |  | 1.63 |  | 0.3 µM | ≤ 3 | significant increase | significantly improved | 3.70 ± 2.98 (n = 5) | 1.63 ± 0.54 (n = 5) |
